# From patent US7988950B2, “Contrast agents endowed with high relaxivity for use in magnetic resonance imaging (MRI) which contain a chelating moiety with polyhydroxylated substituents” (Bracco Imaging S.p.A., priority 2004, dated 2011)
# Test: 1/T1 NMRD profiles / relaxivity over a range of magnetic field strengths
# Type: physicochemical
# Details: 25° C., 1 mM aqueous solution; from 0.2 to 3 MHz
# Excerpt: As an example, the relaxivity profile of the gadolinium complex of the chelating ligand of the invention 2b (hereinafter referred to as Gd-2b), in the above magnetic field range, has been compared with that of a marketed NSA, i.e. Magnevist®, and that of a blood pool agent, i.e. the macromolecular adduct between Gd-DTPA(BOM)3 and BSA (Bovine Serum Albumin) (FIG. 6).
# The corresponding profile for the above blood pool agent is quite different.
# The stability of the relaxivity properties shown by the compounds of the invention was tested. In a first experiment, the 1/T1 NMRD profiles for some compounds of the invention were acquired over a range of magnetic field strengths ranging from 0.01 to 130 MHz. The profile shown by the Gd-1b chelated compound of the invention is included in FIG. 4, while corresponding profiles for chelated compounds Gd-1c, Gd-2c and Gd-3c are included in FIGS. 5 and 5 bis. A comparison has been also performed for compound Gd-2b over a corresponding profile registered for GD-DTPA (Magnevist®), a marketed NSA, and for GD-DOTA-BSA, a well known blood pool agent.
# Conversely, the relaxivity improvement shown by the blood pool agent rapidly falls dawn over the same range of magnetic field strength.
row,Molecule,relaxivity profile over magnetic field strength (NMRD)
1,Gd-DTPA,quite stable though very low

# Test: Relaxivity determination (r1p) of Gd complexes at 298 K, 20 MHz, pH 7
# Type: physicochemical
# Details: Table 5; 298 K, 20 MHz, pH 7; q=1 derivatives of the DTPA-monophosphonate backbone
# Excerpt: As far as the relaxation enhancement property is concerned, a paramagnetic Gd(III) complex is characterized by its relaxivity (r1p) which represents the increase of the proton relaxation rate of an aqueous solution of the Gd(III) complex in comparison to the proton relaxation rate of neat water (R1^o). The relaxivity is usually measured at 298 K and 20 MHz (0.5 T).
# In order to best evaluate the relaxivity properties and the parameters affecting the relaxivity of the agents of the invention, some comparative tests have been performed. In a first experiment, the relaxivity of a number of Gd-based chelated compounds having different molecular weight, all derived from the following [Gd(DTPA-monophosphonate)]^3− basic backbone structure (r1p at 20 MHz and 298K: 6.1 mM^−1s^−1) of formula
# Tested compounds include the Gd-complex of the chelating compounds 1b and 2b of the invention (hereinafter Gd-1b and Gd-2b) as well as a number of different derivatives of the aforementioned backbone moiety selected in order to cover a range of molecular weights of up to about 1800 Dalton. The relaxivity of all of the tested compounds were measured at 298 K and 20 MHz and pH 7. The obtained values, listed in table 5 below (together with the structure of the compounds) have also been plotted against the MW of the complexes (see FIG. 1).
# A second experiment was performed to test the relaxivity of different compounds of the invention, marketed NSA, known LDA and other systems, all containing one coordinated water molecule (q=1). The data were registered at 298K and 20 MHz and pH=7, and plotted against their corresponding MW. Relaxivity data relating to LDA P760 and P792 (LDA contrast agents) are based on literature cited below.
# In addition to the above, please find below as per table 7, other relaxivity values, measured as above indicated, for some other representative compounds of the invention.
row,Molecule,R1p [mM⁻¹ s⁻¹]
1,O=C(O)CN(CCN(CCN(CC(=O)O)[C@@H](COCc1ccccc1)C(=O)O)CP(=O)(O)O)[C@@H](COCc1ccccc1)C(=O)O [B 22666],7.9
2,O=C(O)CN(CCN(CCN(CC(=O)O)[C@@H](Cc1c[nH]c2ccccc12)C(=O)O)CP(=O)(O)O)C(Cc1c[nH]c2ccccc12)C(=O)O (stereo partly drawn) [B 22836],7.9
3,O=C(O)CN(CCN(CCN(CC(=O)O)[C@@H](Cc1ccccc1)C(=O)O)CP(=O)(O)O)[C@@H](Cc1ccccc1)C(=O)O [B 22606],7.7

# Same assay, conditions: Table 6; 298K, 20 MHz, pH=7; q=1
row,Molecule,R1p [mM⁻¹ s⁻¹]
1,O=C(O)CN1CCN(CC(=O)O)CCN(C(COCc2ccccc2)C(=O)O)CCN(CC(=O)O)CC1 (stereo not drawn) [Compound B19106],5.5
2,CC(CO)(CO)COCC(CNC(=O)CCC(C(=O)O)N1CCN(C(CCC(=O)NCC(COCC(C)(CO)CO)COCC(C)(CO)CO)C(=O)O)CCN(C(CCC(=O)NCC(COCC(C)(CO)CO)COCC(C)(CO)CO)C(=O)O)CCN(C(CCC(=O)NCC(COCC(C)(CO)CO)COCC(C)(CO)CO)C(=O)O)CC1)COCC(C)(CO)CO (stereo not drawn) [Gd-2c],15
3,O=C(O)CN1CCN(C(COCc2ccccc2)C(=O)O)CCN(C(COCc2ccccc2)C(=O)O)CCN(C(COCc2ccccc2)C(=O)O)CC1 (stereo not drawn) [Compound B19406],7.5
4,O=C(O)CN1CCN(CC(=O)O)CCN(CC(=O)O)CCN(CC(=O)O)CC1 [Gd-DOTA],4.7
5,O=C(CCC(C(=O)O)N1CCN(C(CCC(=O)NCC(COC(CO)CO)COC(CO)CO)C(=O)O)CCN(C(CCC(=O)NCC(COC(CO)CO)COC(CO)CO)C(=O)O)CCN(C(CCC(=O)NCC(COC(CO)CO)COC(CO)CO)C(=O)O)CC1)NCC(COC(CO)CO)COC(CO)CO (stereo not drawn) [Gd-1c],13.84
6,O=C(O)CN1CCN(C(COCc2ccccc2)C(=O)O)CCN(CC(=O)O)CCN(C(COCc2ccccc2)C(=O)O)CC1 (stereo not drawn) [Compound B19236],6.5
7,O=C(O)CN(CCN(CC(=O)O)CC(=O)O)CCN(CC(=O)O)CC(=O)O [Gd-DTPA],4.7
8,O=C(CCC(C(=O)O)N1CCN(C(CCC(=O)NCC(COCC(COC(CO)CO)COC(CO)CO)COCC(COC(CO)CO)COC(CO)CO)C(=O)O)CCN(C(CCC(=O)NCC(COCC(COC(CO)CO)COC(CO)CO)COCC(COC(CO)CO)COC(CO)CO)C(=O)O)CCN(C(CCC(=O)NCC(COCC(COC(CO)CO)COC(CO)CO)COCC(COC(CO)CO)COC(CO)CO)C(=O)O)CC1)NCC(COCC(COC(CO)CO)COC(CO)CO)COCC(COC(CO)CO)COC(CO)CO (stereo not drawn) [Gd-3c],19.6

# Same assay, conditions: Table 7; measured as above indicated (298 K, 20 MHz)
row,Molecule,R1p [mM⁻¹ s⁻¹]
1,O=C(O)CCC(C(=O)O)N1CCN(Cc2cccc(C(=O)NCC(CNC(=O)C(O)C(O)C(O)C(O)CO)(CNC(=O)C(O)C(O)C(O)C(O)CO)CNC(=O)C(O)C(O)C(O)C(O)CO)c2)CCN(C(CCC(=O)O)C(=O)O)CCN(C(CCC(=O)O)C(=O)O)CC1 (stereo not drawn) [Gd-1d],24
2,O=C(CC[C@@H](C(=O)O)N1CCN([C@@H](CCC(=O)NC(COC2OC(CO)C(O)C(O)C2O)(COC2OC(CO)C(O)C(O)C2O)COC2OC(CO)C(O)C(O)C2O)C(=O)O)CCN([C@@H](CCC(=O)NC(COC2OC(CO)C(O)C(O)C2O)(COC2OC(CO)C(O)C(O)C2O)COC2OC(CO)C(O)C(O)C2O)C(=O)O)CCN([C@@H](CCC(=O)NC(COC2OC(CO)C(O)C(O)C2O)(COC2OC(CO)C(O)C(O)C2O)COC2OC(CO)C(O)C(O)C2O)C(=O)O)CC1)NC(COC1OC(CO)C(O)C(O)C1O)(COC1OC(CO)C(O)C(O)C1O)COC1OC(CO)C(O)C(O)C1O (stereo partly drawn) [Gd-7c],20.4
3,CC1(N(CC(=O)O)CC(=O)O)CN(C(CCC(=O)N(CCN(CCC(=O)NC(CO)(CO)CO)CCC(=O)NC(CO)(CO)CO)CCN(CCC(=O)NC(CO)(CO)CO)CCC(=O)NC(CO)(CO)CO)C(=O)O)CCN(C(CCC(=O)N(CCN(CCC(=O)NC(CO)(CO)CO)CCC(=O)NC(CO)(CO)CO)CCN(CCC(=O)NC(CO)(CO)CO)CCC(=O)NC(CO)(CO)CO)C(=O)O)C1 (stereo not drawn) [Gd-15a],16.7
